From patent publication US5707615A, “Method of treating HIV infections with anti-viral formulations” (Merrell Pharmaceuticals Inc., priority 1997, dated 1998)
Read-outs that look alike come from different tables or passages of the source.

Key:
HIV (Strain RF) = assay: Anti-HIV activity in C8166 cells infected with HIV strain RF: syncytia and p24 (Example VI); format: cell-based
Description: Protocol: C8166 cells were infected with HIV (Strain RF) for 1 hour at room temperature to give a multiplicity of infection of approximately 0.01 infectious units per cell.

HIV-I (RF) = assay: Effect of treating HIV-I (RF)-infected cells (C8166) 24 hours post-infection (Example V, Table VII); conditions: for P24 DAY 6 p.i. / SYNCYTIA/WELL DAY 2 / SYNCYTIA/WELL DAY 3: 10 μM; for activity at 10 µM: Human immunodeficiency virus 1, C8166, 144 h, read-out: P24 % CONTROL, 10 μM
Description: Cells were infected with strain RF or GB8 for 24 hours at 37° C. at a multiplicity of infection of 0.001. Cells were washed three times to remove residual virus and then replated into fresh growth medium. Cells were then treated for 24 and 48 hours post-infection (p.i.) with the indicated concentrations of test compounds. Syncytia and P24 antigen levels were determined on the indicated days p.i. by methods described before.

HIV (Strain GB8) = assay: JM cells infected with HIV strain GB8: syncytia and p24 (Example VII); format: cell-based; conditions: for p24 3 days p.i.: supernatant screened at 1/100 dilution
Description: JM cells were infected with HIV (Strain GB8) to give approximately 200 syncytia/1×10^5 cells after 3 days; virus infection was for 1 hour at room temperature.

HIV-I (GB8) = assay: Pretreatment of JM cells and block of HIV-I (GB8) infection (Example IV); conditions: pretreated overnight at 20 μg/mL
Description: JM cells were pretreated overnight at 37° C. with different compounds at 20 μg/mL or left untreated. The cells were washed 3 times in RPMI medium and then infected with HIV-I (GB8) for 2 hours at room temperature. The cells were again washed 3 times in RPMI medium and resuspended in fresh medium prior to being distributed into duplicate wells and incubated at 37° C. After 2 days syncytia were scored and the cell free supernatant fluid harvested and assayed for P24 viral core antigen using the Coulter™ HIV antigen assay.

HIV strain RF = assay: Ability to prevent virus-induced cell death using MT4 cells and strain RF (Example III); format: cell-based; conditions: MT4 cells, 7 days, MTT, 10080 min
Description: (§1) Various oligomers were dissolved in RPMI and were then assayed for anti-HIV activity by making doubling dilutions of the solutions across a 96 well microtitre plate. To each well were then added 5×10^4 cells and 100 TCID50 of virus and the plates incubated at 37° C. for 7 days. MTT was added to each well and the plates incubated for a further 2 hours. The blue formazan crystals were dissolved using acidic isopropanol, and the absorbance measured at 540 nm.

MT4 cells = assay: Toxicity to MT4 cells (TD50, Table IV, MTT); format: cell-based; conditions: MT4 cells, 7 days, MTT
Description: as §1

Cc1cn([C@H]2C[C@H](N=[N+]=[N-])[C@@H](CO)O2)c(=O)[nH]c1=O [AZT, reference compound]
p24 Day 2 (HIV (Strain RF); 0.1 μg/ml): neg | SYNCYTIA Day 2 (HIV (Strain RF); 1 μg/ml): 0 | p24 Day 2 (HIV (Strain RF); 1 μg/ml): neg | activity at 0.1 µg/mL (HIV (Strain RF); Human immunodeficiency virus 1, C8166, 48 h, 0.1 μg/ml, read-out: p24 % of VIRUS CONTROL): 0% | activity at 1 µg/mL (HIV (Strain RF); Human immunodeficiency virus 1, C8166, 48 h, 1 μg/ml, read-out: p24 % of VIRUS CONTROL): 0% | P24 DAY 6 p.i. (HIV-I (RF); addition 0 hours p.i.): 10000 pg/mL | SYNCYTIA/WELL DAY 2 (HIV-I (RF); addition 0 hours p.i.): 0 | SYNCYTIA/WELL DAY 3 (HIV-I (RF); addition 0 hours p.i.): 0 | P24 DAY 6 p.i. (HIV-I (RF); addition 24 hours p.i.): 44000 pg/mL | activity at 10 µM (HIV-I (RF); addition 0 hours p.i.): 1.1% | activity at 10 µM (HIV-I (RF); addition 24 hours p.i.): 4.6%

Nc1ccn([C@H]2CC[C@@H](CO)O2)c(=O)n1 [ddC, reference compound]
MEAN SYNCYTIA 3 days p.i. (HIV (Strain GB8); 0.01 μg/ml): 80 | p24 3 days p.i. (HIV (Strain GB8); 0.01 μg/ml): 5400 pg/mL | MEAN SYNCYTIA 3 days p.i. (HIV (Strain GB8); 0.1 μg/ml): 2 | p24 3 days p.i. (HIV (Strain GB8); 0.1 μg/ml): neg | MEAN SYNCYTIA 3 days p.i. (HIV (Strain GB8); 1 μg/ml): 0 | p24 3 days p.i. (HIV (Strain GB8); 1 μg/ml): neg | MEAN SYNCYTIA 3 days p.i. (HIV (Strain GB8); 10 μg/ml): 0 | p24 3 days p.i. (HIV (Strain GB8); 10 μg/ml): neg | P24 DAY 6 p.i. (HIV-I (RF); addition 0 hours p.i.): 13000 pg/mL | SYNCYTIA/WELL DAY 2 (HIV-I (RF); addition 0 hours p.i.): 0 | SYNCYTIA/WELL DAY 3 (HIV-I (RF); addition 0 hours p.i.): 0 | P24 DAY 6 p.i. (HIV-I (RF); addition 24 hours p.i.): 420000 pg/mL | activity at 10 µM (HIV-I (RF); addition 0 hours p.i.): 1.4% | activity at 10 µM (HIV-I (RF); addition 24 hours p.i.): 44.2%

Dextran Sulfate [reference compound]
P24 (HIV-I (GB8)): 28710 pg/mL | MEAN SYNCYTIA (HIV-I (GB8); 2 days): 184 | P24 % (HIV-I (GB8); % of control, 2880 min): 101% | SYNCYTIA % (HIV-I (GB8); % of control, 2880 min): 155%

poly[imino(2,5-disulfo-1,4-phenylene)iminocarbonyl], alpha-{[(4-methylphenyl)amino]carbonyl}-omega-[(4-methylphenyl)amino]- [Example 3B]
ED50 (HIV strain RF): 1.7 µg/mL | TD50 (MT4 cells): > 100 µg/mL

poly[imino(3-sulfo-1,4-phenylene)-1,2-ethenediyl-(2-sulfo-1,4-phenylene)iminocarbonyl], alpha-{[(4-methylphenyl)aminocarbonyl}-omega-[(4-methylphenyl)amino- [Example 2A]
ED50 (HIV strain RF): 1.9 µg/mL | TD50 (MT4 cells): > 100 µg/mL

poly[imino(3-sulfo-1,4-phenylene)-1,2-ethenediyl-(2-sulfo-1,4-phenylene)iminocarbonyl], alpha-{[(4-methylphenyl)aminocarbonyl}-omega-[(4-methylphenyl)amino- [Example 2B]
ED50 (HIV strain RF): 2.5 µg/mL | TD50 (MT4 cells): > 100 µg/mL
